The test addresses T1, human RGS14 RGS-box (wild-type) (Homo sapiens, UniProt O43566).
T1 construct: human RGS14 RGS-box (aa 46–195 of UniProt O43566); host or cells: E. coli
T1 sequence (O43566 46-195): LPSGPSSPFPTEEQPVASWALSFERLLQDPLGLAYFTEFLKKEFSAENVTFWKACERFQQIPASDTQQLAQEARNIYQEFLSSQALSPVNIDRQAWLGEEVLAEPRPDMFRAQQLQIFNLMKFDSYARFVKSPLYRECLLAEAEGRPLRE
As to the kind of experiment: Transcreener GDP RGScreen fluorescence polarization assay of RGS14 RGS-box GAP activity on Gαi1(DM). The settings on record: wild-type RGS14 RGS-box GAP activity, Gαi1(DM), Transcreener GDP RGScreen; read-out: RGS14 pIC50 (converted). The test is classed as biochemical. An excerpt:
We previously described work with BellBrook Labs creating the Transcreener GDP RGScreen fluorescence polarization assay of steady-state GTP hydrolysis, leveraging a double point-mutant in the Gα enzyme to make GTP hydrolysis, rather than GDP (product) release, the rate-limiting step for multiple rounds of GTP conversion ([57], [59]). […] Titrating inputs of the double point-mutant (“DM”) Gαi1 and RGS-box recombinant proteins (Fig. S2, B and C) established a robust, medium-throughput assay for evaluating potential RGS14 and RGS12 inhibitors, with “assay quality” Z′ scores ([60]) above 0.76 for each target (Fig. S2D).
Reagents and protocols for the fluorescence anisotropy-based Transcreener GDP RGScreen assay using a rate-altered, double point-mutant, recombinant Gαi1 protein have been extensively described previously ([43], [44]); reactions were always performed so that total GTP converted over the time course was consistently less than 10% of reaction maximum input. Specific methods for its application in assessing RGS14 and RGS12 GAP activity are summarized as follows. Open-reading frames (ORFs) encoding wild-type versions of the human RGS14 RGS-box (aa 46–195 of UniProt O43566) and human RGS12 RGS-box (aa 695–843 of UniProt O14924) were each sub-cloned in-frame with an N-terminal hexahistidine (His6) expression tag in the plasmid pET30a, expressed in E. coli cultures, and then purified by nickel-nitriloacetate (Ni-NTA) and size-exclusion (Superdex 200) column chromatographies by GenScript using previously described methods ([35]). These recombinant His6-tag fusion proteins were stored at −80 °C in storage buffer (150 mM NaCl, 50 mM Tris-HCl pH 8.0, 10% glycerol) before thawing and use. Cysteine-less versions were similarly produced by ORF site-directed mutagenesis: for RGS14, codons for cysteine residues 47 and 130 (numbered as in PDB id 2JNU) were replaced with serine codons; for RGS12, codons for cysteines 4, 51, 78, and 134 (numbered in relation to PDB id 2EBZ) were replaced with serine codons. Use of Transcreener GDP-detection reagents to assess compound inhibition of Naegleria fowleri Gα7 protein GTPase activity ([83]) has previously been described ([84]).

For the compound `COc1ccc2nc(SC(C)C(=O)N(C)C)[nH]c2c1` (stereo not shown) [Z92077129], the IC50 was more than 1000 µM.
`COc1ccc(C(=O)C(C)Sc2nc3ccc(OC)cc3[nH]2)cc1` (stereo not shown) [Z16077705]: the IC50 was more than 1000 µM.
Regarding `Cc1ccc2[nH]c(SC(C)C(=O)c3ccc(F)cc3)nc2c1` (stereo not shown) [Z18443583], the IC50 was more than 1000 µM.
With `COc1ccc2nc(SC(C)C(=O)c3ccc(C(C)(C)C)cc3)[nH]c2c1` (stereo not shown) [Z16077565] the figure was more than 1000 µM; with `CC(Sc1nc2ccccc2n1C(C)C)C(=O)c1ccc(C(C)C)cc1C(C)C` (stereo not shown) [Z54156331], more than 1000 µM.
With `CC(=O)N1CCc2cc(C(=O)C(C)Sc3nc4cc(C)ccc4[nH]3)ccc21` (stereo not shown) [Z165332254] the figure was more than 1000 µM.
On to `COc1ccc2nc(SC(C)C(=O)Nc3ccc(C)cc3)[nH]c2c1` (stereo not shown) [Z16077036], for which the IC50 is more than 1000 µM.
Next, `COc1ccc2nc(SC(C)C(=O)c3cc(C)c(C)cc3C)[nH]c2c1` (stereo not shown) [Z16077531]: more than 1000 µM.
With `COc1ccc2nc(SC(C)C(=O)c3cccc(Cl)c3)[nH]c2c1` (stereo not shown) [Z16077229] the figure was more than 1000 µM.
Turning to `CCCC(=O)Nc1ccc(C(=O)C(C)Sc2nc3ccc(OC)cc3[nH]2)cc1` (stereo not shown) [Z50965416], the IC50 was more than 1000 µM.
With `COc1ccc2nc(SCCC(=O)c3ccc(F)cc3)[nH]c2c1` [Z16077963] the figure was more than 1000 µM.
Next, `COc1ccc2nc(SC(C)C(=O)c3ccc(F)cc3F)[nH]c2c1` (stereo not shown) [Z167736700]: more than 1000 µM; `COc1ccc(C(=O)C(C)Sc2nc3ccc(OC)cc3[nH]2)c(OC)c1` (stereo not shown) [Z16077640]: more than 1000 µM; `COc1ccc(C(=O)C(Sc2nc3ccccc3n2C)c2ccc(OC)cc2)cc1` (stereo not shown) [Z15478257]: more than 1000 µM.
On to `COc1ccc2nc(SC(C)C(=O)c3ccc(C)c(C)c3)[nH]c2c1` (stereo not shown) [Z16077488], for which the IC50 is more than 1000 µM.
Turning to `COc1ccc2nc(SC(C)C(=O)c3ccc4c(c3)CCC4)[nH]c2c1` (stereo not shown) [Z16076970], the IC50 is more than 1000 µM.
With `COc1ccc2nc(SC(C)C(=O)c3ccc(NC(=O)C(C)C)cc3)[nH]c2c1` (stereo not shown) [Z65841956] the figure was more than 1000 µM; with `CCn1c(SC(C)C(=O)c2ccc(Cl)cc2)nc2cc(S(N)(=O)=O)ccc21` (stereo not shown) [Z51418567], more than 1000 µM; with `CCOc1ccc(C(=O)C(C)Sc2nc3cc(S(N)(=O)=O)ccc3n2CC)cc1` (stereo not shown) [Z51419689], more than 1000 µM.
As to `CCn1c(SC(C)C(=O)c2ccccc2)nc2cc(S(=O)(=O)N3CCOCC3)ccc21` (stereo not shown) [Z16669878], the IC50 is more than 1000 µM.
With `COc1ccc2nc(SC(C)C(=O)c3ccc(Br)cc3)[nH]c2c1` (stereo not shown) [Z16077584] the figure was more than 1000 µM; with `CCc1ccc(C(=O)C(C)Sc2nc3cc(S(N)(=O)=O)ccc3n2CC)cc1` (stereo not shown) [Z51418852], more than 1000 µM.
Next, `COc1ccc2nc(SC(C)C(=O)Nc3ccc(F)cc3F)[nH]c2c1` (stereo not shown) [Z112468618]: more than 1000 µM; `COc1ccc2nc(SC(C)C(=O)c3ccc(OC)c(OC)c3)[nH]c2c1` (stereo not shown) [Z940567722]: more than 1000 µM; `COc1ccc2nc(SCC(=O)c3ccc(O)cc3)[nH]c2c1` [Z112468740]: more than 1000 µM.
With `COCCn1c(SC(C)C(=O)c2ccc(OC)cc2)nc2ccccc21` (stereo not shown) [Z16216221] the figure was more than 1000 µM; with `CCn1c(SC(C)C(=O)c2cccc(Cl)c2)nc2cc(S(N)(=O)=O)ccc21` (stereo not shown) [Z51418566], more than 1000 µM; with `COc1ccc2nc(SCCOCC3CCCO3)[nH]c2c1` (stereo not shown) [Z1258859165], more than 1000 µM.
On to `COc1ccc2nc(SCC(O)c3ccccc3)[nH]c2c1` (stereo not shown) [Z56784116], for which the IC50 was more than 1000 µM.
Consider `COc1ccc2nc(SC(C)C(=O)c3ccc(OC(F)F)cc3)[nH]c2c1` (stereo not shown) [Z16077231], for which the IC50 was more than 1000 µM.
Next, `CCc1ccc(C(=O)C(C)Sc2nc3ccc(OC)cc3[nH]2)cc1` (stereo not shown) [Z16077530]: more than 1000 µM; `COc1ccc2nc(SC(C)C(=O)c3ccc4c(c3)CCN4C(C)=O)[nH]c2c1` (stereo not shown) [Z165591262]: more than 1000 µM.
With `COc1ccc2[nH]c(SC(C(N)=O)c3ccc(F)cc3)nc2c1` (stereo not shown) [Z234729962] the figure was more than 1000 µM; with `CCCCn1c(SC(C(=O)c2ccc(OC)cc2)c2ccc(OC)cc2)nc2cc(S(N)(=O)=O)ccc21` (stereo not shown) [Z19162246], more than 1000 µM; with `CC(Sc1nc2ccccc2n1C)C(=O)c1ccc(NS(C)(=O)=O)cc1` (stereo not shown) [Z50932699], more than 1000 µM.
As to `CCn1c(SC(C)C(=O)c2c(F)cc(F)cc2F)nc2ccccc21` (stereo not shown) [Z1098345881], the IC50 was more than 1000 µM.
With `COc1ccc2nc(SC(C)C(=O)c3ccccc3C(F)(F)F)[nH]c2c1` (stereo not shown) [Z5032180788] the figure was more than 1000 µM.
Next, `CCn1c(SC(C)C(=O)c2ccc3c(c2)CCC3)nc2cc(S(N)(=O)=O)ccc21` (stereo not shown) [Z51418316]: more than 1000 µM; `COc1ccc2nc(SC(C)C(=O)c3ccc(NC(=O)C(C)(C)C)cc3)[nH]c2c1` (stereo not shown) [Z50965385]: more than 1000 µM; `COc1ccc2nc(SC(C)C(=O)c3cc(C)ccc3C)[nH]c2c1` (stereo not shown) [Z16077483]: more than 1000 µM.
For the compound `CCn1c(SC(C)C(=O)c2ccc3c(c2)CCC3)nc2cc(S(=O)(=O)N3CCOCC3)ccc21` (stereo not shown) [Z16669629], the IC50 was more than 1000 µM.
With `COc1ccc(C(=O)C(C)Sc2nc3cc(C)ccc3[nH]2)cc1Cl` (stereo not shown) [Z5032180749] the figure was more than 1000 µM; with `CCn1c(SC(C)C(=O)c2ccc3c(c2)CCN3C(C)=O)nc2ccccc21` (stereo not shown) [Z165501154], more than 1000 µM; with `COCCn1c(SC(C)C(=O)c2ccc(Br)cc2)nc2ccccc21` (stereo not shown) [Z16216100], more than 1000 µM.
In the case of `CCn1c(SC(C)C(=O)c2c(F)cc(F)cc2F)nc2cc(S(=O)(=O)N3CCCCC3)ccc21` (stereo not shown) [Z5032180738], the IC50 is more than 1000 µM.
Regarding `CCC(Sc1nc2ccc(OC)cc2[nH]1)C(=O)c1ccc(OC)cc1` (stereo not shown) [Z5032180767], the IC50 was more than 1000 µM.
Regarding `Cc1ccc2[nH]c(SC(C)C(=O)c3ccc(OC(F)F)cc3)nc2c1` (stereo not shown) [Z18443016], the IC50 was more than 1000 µM.
For the compound `COc1ccc2nc(SC(C(=O)OC(C)(C)C)C(C)C)[nH]c2c1` (stereo not shown) [Z5032180761], the IC50 was more than 1000 µM.
Consider `Cc1ccc2[nH]c(SC(C)C(=O)c3ccc(F)cc3F)nc2c1` (stereo not shown) [Z167804418], for which the IC50 is more than 1000 µM.
Next, `CCC(Sc1nc2ccc(OC)cc2[nH]1)C(=O)c1ccccc1` (stereo not shown) [Z447938100]: more than 1000 µM.
Turning to `COc1ccc2nc(SCC(=O)c3ccc(F)cc3)[nH]c2c1` [Z16077977], the IC50 was more than 1000 µM.
Next, `COCCn1c(SC(C)C(=O)c2ccc3c(c2)CCN3C(C)=O)nc2ccccc21` (stereo not shown) [Z165550978]: more than 1000 µM; `CCC(Sc1nc2ccc(OC)cc2[nH]1)C(=O)c1ccc(NC(C)=O)cc1` (stereo not shown) [Z1340653159]: more than 1000 µM; `COc1ccc2nc(SC(C)C(=O)c3ccc(NC(C)=O)cc3)[nH]c2c1` (stereo not shown) [Z16077185]: more than 1000 µM.
As to `COc1ccc(-n2c(SC(C)C(=O)c3c(F)cc(F)cc3F)nc3ccccc32)cc1` (stereo not shown) [Z5032180751], the IC50 is more than 1000 µM.
Next, `CCn1c(SC(C)C(=O)c2cc(C)ccc2C)nc2cc(S(N)(=O)=O)ccc21` (stereo not shown) [Z51418807]: more than 1000 µM.
With `COc1ccc2nc(SC(C)C(=O)c3ccc(F)cc3)[nH]c2c1` (stereo not shown) [Z16077798] the figure was more than 1000 µM; with `COc1ccc(-n2c(SC(C)C(=O)c3cc(C)ccc3C)nc3ccccc32)cc1` (stereo not shown) [Z19576483], more than 1000 µM; with `COc1ccc2nc(SC(C)C(=O)Nc3cc(F)ccc3F)[nH]c2c1` (stereo not shown) [Z112468620], more than 1000 µM.
Next, `CCn1c(SC(C)C(=O)c2ccc(Br)cc2)nc2cc(S(N)(=O)=O)ccc21` (stereo not shown) [Z51418902]: more than 1000 µM.
Consider `COc1ccc2nc(SC(C)C(=O)c3cccc(F)c3)[nH]c2c1` (stereo not shown) [Z5032180758], for which the IC50 was more than 1000 µM.
For `COc1ccc2[nH]c(SCC(=O)c3ccc(O)c(O)c3)nc2c1` [Z223822242], the IC50 is more than 1000 µM.
Next, `Cc1ccc2[nH]c(SC(C)C(=O)c3c(F)cc(F)cc3F)nc2c1` (stereo not shown) [Z1098347474]: more than 1000 µM.
With `COc1ccc2nc(SC(C)C(=O)c3ccccc3)[nH]c2c1` (stereo not shown) [Z16077228] the figure was more than 1000 µM; with `COc1ccc2nc(SC(C)C(=O)c3ccc(F)c(F)c3)[nH]c2c1` (stereo not shown) [Z16077536], more than 1000 µM.
For the compound `Cc1ccc2[nH]c(SC(C)C(=O)c3cccc(F)c3)nc2c1` (stereo not shown) [Z5032180743], the IC50 was more than 1000 µM.
Next, `CCn1c(SC(C)C(=O)c2ccc(NC(C)=O)cc2)nc2cc(S(N)(=O)=O)ccc21` (stereo not shown) [Z51418527]: more than 1000 µM.

Values taken from article PMC12495443, “Developing inhibitors of the guanosine triphosphate hydrolysis accelerating activity of Regulator of G protein Signaling-14 [drawing 1]” (The Journal of Biological Chemistry, 2025).
